Each block holds one compound with its values, some of them ahead of it. Numbered stars: 1 amine (or outer) side, 2 acyl side, 3 side chain; on linkers, the order of the positions; unused ones are H or OH. Bridge positions count the residues as written; N and C are the ends. Square brackets hold non-standard residues; d marks the D form. Peptide text beside a SMILES is read from it. * marks the point of attachment. ξ: configuration not given here. Pro(4S-NHCO(5-Cl-2-thienyl)) = O=C(N[C@@H]1CN[C@H](C(=O)O)C1)c1ccc(Cl)s1; ξPro(4ξ-NHCOC6H4-4-Cl) = O=C(NC1CNC(C(=O)O)C1)c1ccc(Cl)cc1; Isoxazole3carbonyl(5-Me) = Cc1cc(C(=O)*)no1; 2Thenoyl(5-Cl) = O=C(c1ccc(Cl)s1)*; Benzoyl(4-Cl) = O=C(c1ccc(Cl)cc1)*; Pyrazinecarbonyl = O=C(c1cnccn1)*; Cysteamide = C(CS[*:3])N[*:1]; X1 = O=C(/C=C/c1ccccc1)*; Api = NC1(C(=O)O)CCNCC1; Dap = NC[C@H](N)C(=O)O; Bz = O=C(c1ccccc1)*; Mpa = O=C(O)CCS
Biological target: MDM2 (Homo sapiens, UniProt Q00987)
Sequence (Q00987 whole entry): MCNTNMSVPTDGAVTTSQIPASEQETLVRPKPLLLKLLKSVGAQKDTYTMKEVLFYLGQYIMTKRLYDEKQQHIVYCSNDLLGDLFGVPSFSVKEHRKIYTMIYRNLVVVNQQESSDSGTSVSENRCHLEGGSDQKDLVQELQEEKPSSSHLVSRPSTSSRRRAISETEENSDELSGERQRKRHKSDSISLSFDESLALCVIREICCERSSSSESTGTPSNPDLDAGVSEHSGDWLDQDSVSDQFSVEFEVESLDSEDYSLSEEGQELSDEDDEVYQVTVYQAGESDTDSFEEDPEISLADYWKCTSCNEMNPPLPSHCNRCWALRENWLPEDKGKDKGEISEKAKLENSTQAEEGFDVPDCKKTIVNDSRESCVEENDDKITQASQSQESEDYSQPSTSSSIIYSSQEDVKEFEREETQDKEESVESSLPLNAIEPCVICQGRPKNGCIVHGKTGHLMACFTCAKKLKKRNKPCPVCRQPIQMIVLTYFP
Assay: MDM2 binding screen: displacement of fluorescent p53 peptide probe FP53 (fluorescence polarization)
Details: for fraction fluorescent probe displaced, Screen: initial screen; for fraction fluorescent probe displaced, Screen / fraction fluorescent probe displaced, Replicate: crude macrocycle reactions; for fraction fluorescent probe displaced: 10 µM macrocycle concentration, crude acylated macrocycle (scaffold Mpa-AA1-AA2-AA3 x carboxylic acid), p53-based fluorescent peptide, human MDM2
Procedure, shortened: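 Macrocycle reaction products at a final 10 µM were tested for displacement of a p53-based fluorescent peptide from human MDM2. Fluorescence anisotropy (ex 485/em 535 nm) was read once per macrocycle at 25 °C.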

- fraction fluorescent probe displaced, Screen (Acid 91): 0.35
- fraction fluorescent probe displaced, Replicate (Acid 91): 0.07
Structure (SMILES): O=C(/C=C/c1ccccc1)NC[C@@H]1NC(=O)[C@H](Cc2c[nH]c3ccccc23)NC(=O)CCSSCCNC(=O)[C@H]2CCCN(C2)C1=O [X W D3 B4 Acid 91]

- fraction fluorescent probe displaced, Screen (Acid 14): 0.31
- fraction fluorescent probe displaced, Replicate (Acid 14): 0.07
Structure (SMILES): O=C1CCSSCCNC(=O)c2cccc(c2)CNC(=O)[C@H](CNC(=O)c2ccc(Cl)s2)NC(=O)[C@H](Cc2c[nH]c3ccccc23)N1 [X W D3 B5 Acid 14]

- fraction fluorescent probe displaced, Screen (Acid 25): 0.12
- fraction fluorescent probe displaced, Replicate (Acid 25): 0.17
Structure (SMILES): O=C1CCSSCCNC(=O)c2cccc(c2)CNC(=O)C(CNC(=O)c2ccc(Cl)cc2)NC(=O)C(Cc2c[nH]c3ccccc23)N1 (stereo not drawn) [X W D3 B5 Acid 25]

- fraction fluorescent probe displaced, Screen (Acid 91): 0.0563
- fraction fluorescent probe displaced, Replicate (Acid 91): 0.17
Structure (SMILES): O=C(/C=C/c1ccccc1)NC[C@@H]1NC(=O)[C@H](Cc2c[nH]c3ccccc23)NC(=O)CCSSCCNC(=O)c2cccc(c2)CNC1=O [X W D3 B5 Acid 91]

- fraction fluorescent probe displaced, Screen (Acid 14): 0.28
- fraction fluorescent probe displaced, Replicate (Acid 14): 0.22
Structure (SMILES): O=C1CCSSCCNC(=O)[C@@H]2CCCN2C(=O)[C@@H]2C[C@H](NC(=O)c3ccc(Cl)s3)CN2C(=O)[C@H](Cc2c[nH]c3ccccc23)N1 [X W D5 B1 Acid 14] ([Mpa]W[Pro(4S-NHCO(5-Cl-2-thienyl))]P-Cysteamide; disulfide 1-C)

- fraction fluorescent probe displaced, Screen (Acid 25): 0.22
- fraction fluorescent probe displaced, Replicate (Acid 25): 0.28
Structure (SMILES): O=C1CCSSCCNC(=O)C2CCCN2C(=O)C2CC(NC(=O)c3ccc(Cl)cc3)CN2C(=O)C(Cc2c[nH]c3ccccc23)N1 (stereo not drawn) [X W D5 B1 Acid 25] ([Mpa]W[ξPro(4ξ-NHCOC6H4-4-Cl)]P-Cysteamide; disulfide 1-C; configuration not given here)

- fraction fluorescent probe displaced, Screen (Acid 91): 0.08
- fraction fluorescent probe displaced, Replicate (Acid 91): 0.07
Structure (SMILES): O=C(C=Cc1ccccc1)NC1CC2C(=O)N3CCCC3C(=O)NCCSSCCC(=O)NC(Cc3c[nH]c4ccccc34)C(=O)N2C1 (stereo not drawn) [X W D5 B1 Acid 91]

- fraction fluorescent probe displaced, Screen (Acid 25): 0.22
- fraction fluorescent probe displaced, Replicate (Acid 25): 0.15
Structure (SMILES): O=C1CCSSCCNC(=O)C2CCCN(C2)C(=O)C2CC(NC(=O)c3ccc(Cl)cc3)CN2C(=O)C(Cc2c[nH]c3ccccc23)N1 (stereo not drawn) [X W D5 B4 Acid 25]

- fraction fluorescent probe displaced, Screen (Acid 91): 0.16
- fraction fluorescent probe displaced, Replicate (Acid 91): 0.09
Structure (SMILES): O=C(C=Cc1ccccc1)NC1CC2C(=O)N3CCCC(C3)C(=O)NCCSSCCC(=O)NC(Cc3c[nH]c4ccccc34)C(=O)N2C1 (stereo not drawn) [X W D5 B4 Acid 91]

- fraction fluorescent probe displaced, Screen (Acid 14): 0.14
- fraction fluorescent probe displaced, Replicate (Acid 14): 0.17
Structure (SMILES): O=C1CCSSCCNC(=O)[C@@H]2CCCN2C(=O)C2(CCN(C(=O)c3ccc(Cl)s3)CC2)NC(=O)[C@H](Cc2c[nH]c3ccccc23)N1 [X W D6 B1 Acid 14] ([Mpa]W[Api](2Thenoyl(5-Cl))P-Cysteamide; disulfide 1-C)

- fraction fluorescent probe displaced, Screen (Acid 25): 0.28
- fraction fluorescent probe displaced, Replicate (Acid 25): 0.25
Structure (SMILES): O=C1CCSSCCNC(=O)[C@@H]2CCCN2C(=O)C2(CCN(C(=O)c3ccc(Cl)cc3)CC2)NC(=O)[C@H](Cc2c[nH]c3ccccc23)N1 [X W D6 B1 Acid 25] ([Mpa]W[Api](Benzoyl(4-Cl))P-Cysteamide; disulfide 1-C)

- fraction fluorescent probe displaced, Screen (Acid 91): 0.14
- fraction fluorescent probe displaced, Replicate (Acid 91): 0.0168
Structure (SMILES): O=C1CCSSCCNC(=O)[C@@H]2CCCN2C(=O)C2(CCN(C(=O)/C=C/c3ccccc3)CC2)NC(=O)[C@H](Cc2c[nH]c3ccccc23)N1 [X W D6 B1 Acid 91] ([Mpa]W[Api](X1)P-Cysteamide; disulfide 1-C)

- fraction fluorescent probe displaced, Screen (Acid 25): 0.0244
- fraction fluorescent probe displaced, Replicate (Acid 25): 0.0465
Structure (SMILES): O=C1CCNC(=O)C2(CCN(C(=O)c3ccc(Cl)cc3)CC2)NC(=O)[C@H](Cc2c[nH]c3ccccc23)NC(=O)CCSSCCN1 [X W D6 B2 Acid 25]

- fraction fluorescent probe displaced, Screen (Acid 91): 0.32
- fraction fluorescent probe displaced, Replicate (Acid 91): 0.0168
Structure (SMILES): O=C1CCNC(=O)C2(CCN(C(=O)C=Cc3ccccc3)CC2)NC(=O)C(Cc2c[nH]c3ccccc23)NC(=O)CCSSCCN1 (stereo not drawn) [X W D6 B2 Acid 91]

- fraction fluorescent probe displaced, Screen (Acid 14): 0.11
- fraction fluorescent probe displaced, Replicate (Acid 14): 0.38
Structure (SMILES): O=C1CCSSCCNC(=O)C2CCCN(C2)C(=O)C2(CCN(C(=O)c3ccc(Cl)s3)CC2)NC(=O)C(Cc2c[nH]c3ccccc23)N1 (stereo not drawn) [X W D6 B4 Acid 14]

- fraction fluorescent probe displaced, Screen (Acid 25): 0.28
- fraction fluorescent probe displaced, Replicate (Acid 25): 0.20
Structure (SMILES): O=C1CCSSCCNC(=O)C2CCCN(C2)C(=O)C2(CCN(C(=O)c3ccc(Cl)cc3)CC2)NC(=O)C(Cc2c[nH]c3ccccc23)N1 (stereo not drawn) [X W D6 B4 Acid 25]

- fraction fluorescent probe displaced, Screen (Acid 91): 0.11
- fraction fluorescent probe displaced, Replicate (Acid 91): 0.09
Structure (SMILES): O=C1CCSSCCNC(=O)[C@H]2CCCN(C2)C(=O)C2(CCN(C(=O)/C=C/c3ccccc3)CC2)NC(=O)[C@H](Cc2c[nH]c3ccccc23)N1 [X W D6 B4 Acid 91]

- fraction fluorescent probe displaced, Screen (Acid 14): 0.14
- fraction fluorescent probe displaced, Replicate (Acid 14): 0.22
Structure (SMILES): O=C1CCSSCCNC(=O)c2cccc(c2)CNC(=O)C2(CCN(C(=O)c3ccc(Cl)s3)CC2)NC(=O)[C@H](Cc2c[nH]c3ccccc23)N1 [X W D6 B5 Acid 14]

- fraction fluorescent probe displaced, Screen (Acid 25): 0.15
- fraction fluorescent probe displaced, Replicate (Acid 25): 0.12
Structure (SMILES): O=C1CCSSCCNC(=O)c2cccc(c2)CNC(=O)C2(CCN(C(=O)c3ccc(Cl)cc3)CC2)NC(=O)C(Cc2c[nH]c3ccccc23)N1 (stereo not drawn) [X W D6 B5 Acid 25]

- fraction fluorescent probe displaced, Screen (Acid 91): 0.40
- fraction fluorescent probe displaced, Replicate (Acid 91): 0.34
Structure (SMILES): O=C1CCSSCCNC(=O)c2cccc(c2)CNC(=O)C2(CCN(C(=O)/C=C/c3ccccc3)CC2)NC(=O)[C@H](Cc2c[nH]c3ccccc23)N1 [X W D6 B5 Acid 91]

- fraction fluorescent probe displaced, Screen (Acid 14): 0.26
- fraction fluorescent probe displaced, Replicate (Acid 14): 0.10
Structure (SMILES): O=C1CCNC(=O)C2CN(C(=O)c3ccc(Cl)s3)CCN2C(=O)C(Cc2c[nH]c3ccccc23)NC(=O)CCSSCCN1 (stereo not drawn) [X W D7 B2 Acid 14]

- fraction fluorescent probe displaced, Screen (Acid 25): 0.19
- fraction fluorescent probe displaced, Replicate (Acid 25): 0.07
Structure (SMILES): O=C1CCNC(=O)C2CN(C(=O)c3ccc(Cl)cc3)CCN2C(=O)C(Cc2c[nH]c3ccccc23)NC(=O)CCSSCCN1 (stereo not drawn) [X W D7 B2 Acid 25]

- fraction fluorescent probe displaced, Screen (Acid 25): 0.15
- fraction fluorescent probe displaced, Replicate (Acid 25): 0.07
Structure (SMILES): O=C1CCSSCCNC(=O)C2CCCN(C2)C(=O)C2CN(C(=O)c3ccc(Cl)cc3)CCN2C(=O)C(Cc2c[nH]c3ccccc23)N1 (stereo not drawn) [X W D7 B4 Acid 25]

- fraction fluorescent probe displaced, Screen (Acid 25): 0.12
- fraction fluorescent probe displaced, Replicate (Acid 25): 0.10
Structure (SMILES): O=C1CCSSCCNC(=O)c2cccc(c2)CNC(=O)C2CN(C(=O)c3ccc(Cl)cc3)CCN2C(=O)[C@H](Cc2c[nH]c3ccccc23)N1 (stereo partly drawn) [X W D7 B5 Acid 25]

- fraction fluorescent probe displaced: -0.005048
Structure (SMILES): O=C(NC[C@@H]1NC(=O)[C@@H]2CCCN2C(=O)CCSSCCNC(=O)[C@H](Cc2ccccc2)NC1=O)c1ccccc1 [X-B1-D3-F + A1] ([Mpa]P[Dap](Bz)F-Cysteamide; disulfide 1-C)

- fraction fluorescent probe displaced: 0.08617
Structure (SMILES): O=C(NC[C@@H]1NC(=O)[C@@H]2CCCN2C(=O)CCSSCCNC(=O)[C@H](Cc2ccccc2)NC1=O)c1cnccn1 [X-B1-D3-F + A2] ([Mpa]P[Dap](Pyrazinecarbonyl)F-Cysteamide; disulfide 1-C)

- fraction fluorescent probe displaced: 0.08125
Structure (SMILES): Cc1cc(C(=O)NC[C@@H]2NC(=O)[C@@H]3CCCN3C(=O)CCSSCCNC(=O)[C@H](Cc3ccccc3)NC2=O)no1 [X-B1-D3-F + A3] ([Mpa]P[Dap](Isoxazole3carbonyl(5-Me))F-Cysteamide; disulfide 1-C)

— publication PMC9250534, “Synthesis and direct assay of large macrocycle diversities by combinatorial late-stage modification at picomole scale” (Nature Communications, 2022)
